Assay results reported in US11542266B1, “Substituted piperidines as BTK inhibitors” (HAISCO PHARMACEUTICALS PTE. LTD., priority 2019, dated 2023).
Counter-ions that a name gives are not always drawn. Like-named read-outs stand apart in the source and are kept apart here.

Tested on: Mino cells
Experiment: Inhibition of cell proliferation, Mino cells (Cell Viability Assay, 72 h)
Format: cell-based, human
Conditions: for Mino Max inhi. %: inhibition rate at the highest concentration of the compound
Procedure: SU-DHL-4, Mino, and SU-DHL-6 cells, in the culture medium of RPMI1640+10% FBS, were cultured in an incubator at 37° C. under 5% CO2. Cells were plated in a 96-well plate. Specifically, SU-DHL-4 cells were at 20000/well, Mino and SU-DHL-6 cells were at 5000/well, with 90 μL/well. 10 μL of the compounds at different concentrations were added to each well. There were 3 replicate wells for each concentration, and the last column, added with DMSO, was used as a vehicle control group. The cultures were continued for 72 hours at 37° C. under 5% CO2. After 72 hours, 100 μL of detection reagent (Cell Viability Assay, Promega, G7573) was added to each well, and the cultures were uniformly mixed for 2 minutes, and incubated at room temperature for 10 minutes. The fluorescence signal value was measured with a microplate reader (PHERAstar FSX). The IC50 value of the compound on cell proliferation inhibition was calculated using Origin 9.2 software, and the inhibition rate at the highest concentration of the compound (Max inhi. %) was calculated according to formula (1). Max inhi. %=(1-T72 administration/T72 vehicle)×100 Formula (1).

SMILES: NC(=O)c1c(-c2ccc(Oc3ccccc3)cc2)nn2c1NCC[C@H]2C1CCN(C2CCN(C3CN(c4ccc5c(c4)C(=O)N(C4CCC(=O)NC4=O)C5=O)C3)CC2)CC1 (stereo partly drawn) [Compound 30, (7S)-7-[1-[1-[1-[2-(2,6-dioxo-3-piperidyl)-1,3-dioxo-isoindolin-5-yl]azetidin-3-yl]-4-piperidyl]-4-piperidyl]-2-(4-phenoxyphenyl)-4,5,6,7-tetrahydropyrazolo[1,5-a]pyrimidine-3-carboxamide trifluoroacetate]
- Mino Max inhi. %: 82.5%

SMILES: NC(=O)c1c(-c2ccc(Oc3ccccc3)cc2)nn2c1NCC[C@H]2C1CCN(C2CN(C3CN(c4ccc5c(c4)C(=O)N(C4CCC(=O)NC4=O)C5=O)C3)C2)CC1 (stereo partly drawn) [Compound 31, (7S)-7-[1-[1-[1-[2-(2,6-dioxo-3-piperidyl)-1,3-dioxo-isoindolin-5-yl]azetidin-3-yl]azetidin-3-yl]-4-piperidyl]-2-(4-phenoxyphenyl)-4,5,6,7-tetrahydropyrazolo[1,5-a]pyrimidine-3-carboxamide trifluoroacetate]
- Mino Max inhi. %: 78.3%

SMILES: Nc1ncnc2c1c(-c1ccc(Oc3ccccc3)cc1)nn2C1CCN(C2CCN(C3CN(c4ccc5c(c4)C(=O)N(C4CCC(=O)NC4=O)C5=O)C3)CC2F)CC1 (stereo not drawn) [Compound 46-1, trans-5-(3-(4-(4-amino-3-(4-phenoxyphenyl)-1H-pyrazolo[3,4-d]pyrimidin-1-yl)-3′-fluoro-[1,4′-bipiperidin]-1′-yl)azetidin-1-yl)-2-(2,6-dioxopiperidin-3-yl)isoindoline-1,3-dione-P1]
- IC50: 27 nM

SMILES: NC(=O)c1c(-c2ccc(Oc3ccccc3)cc2)nn2c1NCC[C@H]2C1CCN(C2CCN(c3ccc4c(c3)C(=O)N(C3CCC(=O)NC3=O)C4=O)CC2)CC1 (stereo partly drawn) [Compound 48, (7S)-7-(1′-(2-(2,6-dioxopiperidin-3-yl)-1,3-dioxo-isoindolin-5-yl)-[1,4′-bipiperidin]-4-yl)-2-(4-phenoxyphenyl)-4,5,6,7-tetrahydropyrazolo[1,5-a]pyrimidine-3-carboxamide]
- Mino Max inhi. %: 95.7%

SMILES: Nc1ncnc2c1c(-c1ccc(Oc3ccccc3)cc1)nn2C1CCN(C2CCN(C3CN(c4ccc5c(c4)C(=O)N(C4CCC(=O)NC4=O)C5=O)C3)CC2F)CC1 (stereo not drawn) [Compound 49-1, cis-5-(3-(4-(4-amino-3-(4-phenoxyphenyl)-1H-pyrazolo[3,4-d]pyrimidin-1-yl)-3′-fluoro-[1,4′-bipiperidin]-1′-yl)azetidin-1-yl)-2-(2,6-dioxopiperidin-3-yl)isoindoline-1,3-dione-P1]
- IC50: 113 nM

SMILES: Nc1ncnc2c1c(-c1ccc(Oc3ccccc3)cc1)nn2C1CCN(C2CC3(CCN(C4CN(c5ccc6c(c5)C(=O)N(C5CCC(=O)NC5=O)C6=O)C4)CC3)C2)CC1 (centres unmarked) [Compound 50, 5-(3-(2-(4-(4-amino-3-(4-phenoxyphenyl)-1H-pyrazolo[3,4-d]pyrimidin-1-yl)piperidin-1-yl)-7-azaspiro[3.5]nonan-7-yl)azetidin-1-yl)-2-(2,6-dioxopiperidin-3-yl)isoindoline-1,3-dione]
- IC50 (Homo sapiens): 112 nM

SMILES: Nc1ncnc2c1c(-c1ccc(Oc3ccccc3)cc1)nn2C1CCN(C2CC3(CCN(C4CC5(CCN(c6ccc7c(c6)C(=O)N(C6CCC(=O)NC6=O)C7=O)CC5)C4)CC3)C2)CC1 (centres unmarked) [Compound 51, 5-(2′-(4-(4-amino-3-(4-phenoxyphenyl)-1H-pyrazolo[3,4-d]pyrimidin-1-yl)piperidin-1-yl)-7,7′-diaza[2,7′-bispiro[3.5]nonan]-7-yl)-2-(2,6-dioxopiperidin-3-yl)isoindoline-1,3-dione]
- Mino Max inhi. %: 99.7%

SMILES: Nc1ncnc2c1c(-c1ccc(Oc3ccccc3)cc1)nn2C1CCN(C2C[C@@H]3CN(C4CC5(CCN(c6ccc7c(c6)C(=O)N(C6CCC(=O)NC6=O)C7=O)CC5)C4)C[C@@H]3C2)CC1 (stereo partly drawn) [Compound 52, 5-(2-((3aR,6aS)-5-(4-(4-amino-3-(4-phenoxyphenyl)-1H-pyrazolo[3,4-d]pyrimidin-1-yl)piperidin-1-yl)hexahydrocyclopenta[c]pyrrol-2(1H)-yl)-7-azaspiro[3.5]nonan-7-yl)-2-(2,6-dioxopiperidin-3-yl)isoindoline-1,3-dione]
- Mino Max inhi. %: 99.7%

SMILES: Nc1ncnc2c1c(-c1ccc(Oc3ccccc3)cc1)nn2C1CCN(C2C[C@@H]3CN(C4C[C@@H]5CN(c6ccc7c(c6)C(=O)N(C6CCC(=O)NC6=O)C7=O)C[C@@H]5C4)C[C@@H]3C2)CC1 (stereo partly drawn) [Compound 53, 5-((3aR,3′aR,6aS,6′aS)-5-(4-(4-amino-3-(4-phenoxyphenyl)-1H-pyrazolo[3,4-d]pyrimidin-1-yl)piperidin-1-yl)dodecahydro-1H-[2,5′-bi(cyclopenta[c]pyrrol)]-2′(1′H)-yl)-2-(2,6-dioxopiperidin-3-yl)isoindoline-1,3-dione trifluoroacetate]
- Mino Max inhi. %: 99.6%

SMILES: Nc1ncnc2c1c(-c1ccc(Oc3ccccc3)cc1)nn2C1CCN(C2CN(C3CCC4(CC3)CN(c3ccc5c(c3)C(=O)N(C3CCC(=O)NC3=O)C5=O)C4)C2)CC1 (centres unmarked) [Compound 54, 5-(7-(3-(4-(4-amino-3-(4-phenoxyphenyl)-1H-pyrazolo[3,4-d]pyrimidin-1-yl)piperidin-1-yl)azetidin-1-yl)-2-azaspiro[3.5]nonan-2-yl)-2-(2,6-dioxopiperidin-3-yl)isoindoline-1,3-dione]
- IC50 (Homo sapiens): 200 nM

SMILES: Nc1ncnc2c1c(-c1ccc(Oc3ccccc3)cc1)nn2C1CCN(C2CCC3(CC2)CN(C2CCC4(CC2)CN(c2ccc5c(c2)C(=O)N(C2CCC(=O)NC2=O)C5=O)C4)C3)CC1 (centres unmarked) [Compound 55, 5-(7-(4-(4-amino-3-(4-phenoxyphenyl)-1H-pyrazolo[3,4-d]pyrimidin-1-yl)piperidin-1-yl)-2,2′-diaza[2,7′-bispiro[3.5]nonan]-2′-yl)-2-(2,6-dioxopiperidin-3-yl)isoindoline-1,3-dione]
- Mino Max inhi. %: 99.9%

SMILES: Nc1ncnc2c1c(-c1ccc(Oc3ccccc3)cc1)nn2C1CCN(C2CCC3(CC2)CN(C2CN(c4ccc5c(c4)C(=O)N(C4CCC(=O)NC4=O)C5=O)C2)C3)CC1 (centres unmarked) [Compound 56, 5-(3-(7-(4-(4-amino-3-(4-phenoxyphenyl)-1H-pyrazolo[3,4-d]pyrimidin-1-yl)piperidin-1-yl)-2-azaspiro[3.5]nonan-2-yl)azetidin-1-yl)-2-(2,6-dioxopiperidin-3-yl)isoindoline-1,3-dione]
- Mino Max inhi. %: 99.9%

SMILES: Nc1ncnc2c1c(-c1ccc(Oc3ccccc3)cc1)nn2C1CCN(C2CC3CCC(C2)N3C2CN(c3ccc4c(c3)C(=O)N(C3CCC(=O)NC3=O)C4=O)C2)CC1 (centres unmarked) [Compound 57, 5-(3-(3-(4-(4-amino-3-(4-phenoxyphenyl)-1H-pyrazolo[3,4-d]pyrimidin-1-yl)piperidin-1-yl)-8-azabicyclo[3.2.1]octan-8-yl)azetidin-1-yl)-2-(2,6-dioxopiperidin-3-yl)isoindoline-1,3-dione]
- Mino Max inhi. %: 99.2%

SMILES: Nc1ncnc2c1c(-c1ccc(Oc3ccccc3)cc1)nn2C1CCN(C2CC3CCC(C2)N3c2ccc3c(c2)C(=O)N(C2CCC(=O)NC2=O)C3=O)CC1 (centres unmarked) [Compound 58, 5-(3-(4-(4-amino-3-(4-phenoxyphenyl)-1H-pyrazolo[3,4-d]pyrimidin-1-yl)piperidin-1-yl)-8-azabicyclo[3.2.1]octan-8-yl)-2-(2,6-dioxopiperidin-3-yl)isoindoline-1,3-dione]
- Mino Max inhi. %: 95.3%
